Test results published in patent publication US6706762B1, “Methods for the use of inhibitors of co-repressors for the treatment of neoplastic diseases” (The Salk Institute for Biological Studies, priority 1997, dated 2004).

Experiments:
[1] = system: GAL-PLZF-RARα; experiment: GAL-PLZF-RARα activation of UAS reporter, transient transfection in CV1 cells; type: cell-based; conditions: for reporter activation in combination with ATRA: TSA 150 nM or NaB 5 mM plus ATRA; for reporter activation in combination with ATRA / relief of repression by GAL-PLZF-RARα: 16 hours; for relief of repression by GAL-PLZF-RARα: TSA 150 nM or NaB 5 mM
Method: (§1) GAL4-DBD fusions of RARα or PLZF-RARα were transfected into CV1 cells and examination of their RA-activation on UAS reporters. CV1 cells were transfected using DOTAP transfection reagents (Boehringer Mannheim). Luciferase activity of each sample was normalized against internal control β-galactosidase activity (Nagy et al. (1997) Cell 89:373-380). Each transfection was carried out in triplicate and repeated at least three times.

[2] = system: PLZF-RARα; experiment: TK-βRARE×2-Luc reporter, transcriptional inhibition by PLZF-RARα in CV1 cells; type: cell-based; conditions: NaB 5 mM, 100 nM ATRA
Method: as §1
(§2) It was then sought to determine whether similar effects can be seen on native RA-response elements. As shown previously, exogenous expression of PLZF-RARα or PML-RARα inhibits RA-activation mediated by endogenous RARs on βRARE reporters (FIG. 6(C); de Thé et al. (1991) Cell 66:675-684; Kastner et al. (1992) EMBO J. 11:629-642; Chen et al. (1994) Proc. Natl Acad. Sci. USA 91:1178-1182; Licht et al. (1996) Oncogene 12:323-336; Rousselot et al. (1994) Oncogene 9:545-551).

[3] = system: PML-RARα; experiment: TK-βRARE×2-Luc reporter, transcriptional inhibition by PML-RARα in CV1 cells; type: cell-based; conditions: NaB 5 mM, 100 nM ATRA
Method: as §1, §2

[4] = system: NB4 cells; experiment: Nitroblue Tetrazolium (NBT) reduction differentiation assay in NB4 cells; type: cell-based, human; conditions: three days
Method: (§3) This prediction was tested utilizing the NB4 cell line established from a patient with t(15;17) APL. NB4, NB4-R4 (Shao et al. (1997) Blood 89:4282-4289), HL-60 and HL-60R (Robertson et al. (1992) Blood 80:1885-1889) cells were cultured in RPMI with 10% FBS. […] Differentiation assays with RA and/or TSA were carried out as previously described (Nagy et al. (1997) Cell 89:373-380). NBT assay has been described (Nagy et al. (1995) Mole. Cell. Biol. 15:3540-3551).

[5] = molecular target: T1, RARα / GST-SMRT-IDII (Homo sapiens, UniProt P10276); experiment: GST-SMRT-IDII affinity matrix, binding of radiolabelled RARα; conditions: presence of 5 μM ATRA
T1 construct: made in house; host or cells: 35S-labelled receptor (in vitro translation); GST-SMRT from E. coli DH5a or BL-21
T1 sequence (P10276 1-462): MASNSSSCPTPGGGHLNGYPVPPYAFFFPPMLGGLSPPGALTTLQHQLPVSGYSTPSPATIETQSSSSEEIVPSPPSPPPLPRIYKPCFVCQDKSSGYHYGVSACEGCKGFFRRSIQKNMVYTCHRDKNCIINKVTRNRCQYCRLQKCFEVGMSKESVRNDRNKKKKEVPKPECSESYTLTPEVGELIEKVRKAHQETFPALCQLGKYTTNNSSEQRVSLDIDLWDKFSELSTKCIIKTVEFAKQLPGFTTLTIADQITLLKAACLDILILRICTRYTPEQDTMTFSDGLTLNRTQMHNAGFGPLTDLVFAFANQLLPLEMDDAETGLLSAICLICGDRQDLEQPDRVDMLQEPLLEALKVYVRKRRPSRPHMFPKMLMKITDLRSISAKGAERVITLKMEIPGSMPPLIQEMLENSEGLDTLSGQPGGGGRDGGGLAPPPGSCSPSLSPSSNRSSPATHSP
Method: (§4) Recombinant proteins were obtained as follows and in vitro protein interaction assays were carried out as follows. GST-PLZF and GST-SMRT fusion proteins were produced from E. Coli DH5a or BL-21 cells and purified by glutathione-Sepharose 4B affinity chromatography. Bound proteins were eluted with 15 mM glutathione. Purified proteins were then reloaded on glutathione-Sepharose 4B beads and used as affinity matrices. Protein interaction assays were performed in G buffer (20 mM Tris, 7.9, 150 mM KCl, 1 mM EDTA, 4 mM MgCl2, 0.26 NP-40, 10% Glycerol) at 4° C. for 60 min with gentle rocking. The beads were washed five times with G buffer and bounded proteins were eluted in SDS sample buffer, separated by SDS-PAGE and visualized by autoradiography.

[6] = system: PLZF-RARα / GST-SMRT-IDII; experiment: GST-SMRT-IDII affinity matrix, binding of radiolabelled PLZF-RARα; conditions: presence of 5 μM ATRA
Method: as §4

[7] = system: PLZF-RARα / GST-SMRT-PID2; experiment: GST-SMRT-PID2 affinity matrix, binding of radiolabelled PLZF-RARα; conditions: presence or absence of 5 μM ATRA
Method: as §4

[8] = molecular target: T2, SMRT associated with RARα (Homo sapiens, UniProt P10276); experiment: Immunoprecipitation of HA-RARα from CV1 cell extracts, immunoblot for SMRT; type: cell-based; conditions: ATRA (5 μM), 4° C. overnight
T2 construct: HA-RARα (amino acids 61-462); expressed in transfected cells; host or cells: CV1 cells
T2 sequence (P10276 61-462): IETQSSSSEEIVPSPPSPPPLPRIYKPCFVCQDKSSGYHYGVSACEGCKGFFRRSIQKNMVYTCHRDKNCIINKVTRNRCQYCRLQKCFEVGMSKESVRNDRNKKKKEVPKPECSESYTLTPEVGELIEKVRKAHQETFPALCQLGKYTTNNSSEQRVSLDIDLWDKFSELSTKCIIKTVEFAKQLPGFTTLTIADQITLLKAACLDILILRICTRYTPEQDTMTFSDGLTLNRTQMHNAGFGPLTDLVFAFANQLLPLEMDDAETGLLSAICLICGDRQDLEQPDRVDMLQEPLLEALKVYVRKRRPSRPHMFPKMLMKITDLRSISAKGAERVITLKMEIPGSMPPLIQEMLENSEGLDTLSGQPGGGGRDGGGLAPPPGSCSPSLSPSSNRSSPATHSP
Method: (§5) For in vitro immunoprecipitation, in vitro translated proteins were incubated together with 10 μg/μl anti-HA antibody in G buffer at 4° C. for 60 min. Immunocomplexes were isolated by incubation with protein A-agarose, washed four times with G buffer, analyzed by SDS-PAGE and visualized by autoradiography. For in vivo immunoprecipitation, 2×10^7 CV1 cells were transfected with 10 μg of appropriate plasmids and harvested in ice-cold PBS, 24 hours after transfection. Cells were lysed by hypotonic shock and the nuclear pellet was resuspended in IP buffer (PBS, 10 mM NaF, 25 mM β-glycerolphosphate, 0.1% NP-40, 0.5 mM PMSF plus protease inhibitors) and disrupted by mild sonication.
(§6) Immunocomplexes were resolved by SDS-PAGE and analyzed by immunoblotting.

[9] = system: SMRT associated with PLZF-RARα; experiment: Immunoprecipitation of HA-PLZF-RARα from CV1 cell extracts, immunoblot for SMRT; type: cell-based; conditions: ATRA (5 μM), 4° C. overnight
Method: as §5, §6

[10] = molecular target: T3, RARα / SMRT (Homo sapiens, UniProt P10276); experiment: GST-SMRT (amino acids 1,073-1,330) affinity matrix, radiolabelled RARα; type: binding; conditions: ATRA
T3 construct: made in house; host or cells: in vitro translated receptor; GST-SMRT from E. coli
T3 sequence (P10276 1-462): T1 sequence (P10276 1-462)

[11] = system: PML-RARα/SMRT complex; experiment: GST-SMRT (amino acids 1,073-1,330) affinity matrix, radiolabelled PML-RARα; type: binding; conditions: ATRA
[12] = system: SMRT / DNA-bound PML-RARα; experiment: Gel mobility shift assay, GST-SMRT-IDII with PML-RARα homodimers on DR5 elements; type: binding; conditions: compared with RARα/RXRα heterodimers
Description: The protein-DNA complexes were then resolved on a 4.5% native polyacrylamide gel and visualized by autoradiography.

[13] = system: PML-RARα expressing HL-60 cells; conditions: Rousselot et al. (1994); cited from earlier work
[14] = system: myeloid leukemia (HL-60) cells; experiment: Differentiation of HL-60 cells, CD14 and CD11b expression by flow cytometry; type: cell-based, human; conditions: 72 hours
Method: If HDAC is a critical component of receptor function then addition of a deacetylase inhibitor, such as Trichostatin A (TSA) (Taunton et al., Science 272:408-411 (1996)) would be expected to relieve transcriptional repression, resulting in a promoter that is likely to be more sensitive to the addition of hormone. This prediction was tested by studying the effect of TSA on the differentiation of myeloid leukemia (HL-60) cells (Collins, Blood 70:1233-1244 (1987)) following a high dose ( 100 nM) 9-cis RA treatment. A hallmark of this process is the appearance of cell surface differentiation markers CD14 and CD11b (Brackman et al., Leukemia Research 19:57-64 (1995)). HL-60 cells cultured in RPMI 10% FBS were plated at a density of 2×10^5/ml in RPMI 2% FBS treated with 9-cis RA (Sigma) and/or Trichostatin A (TSA) (Waco Pure Chemical Industries) for 72 hours and then incubated with R-phycoerythrin (RPE) conjugated anti-human C3bi receptor (CD11b) (DAKO) or RPE-conjugated monoclonal mouse anti-human CD 14 (DAKO) antibodies for 60 minutes on ice. Cells were washed twice with PBS 0.5% BSA and analyzed on a FACScan flow cytometer (Becton Dickinson). The expression of cell surface antigens (CD11b and CD14) were monitored.

[15] = system: NB4 cells; experiment: CD18 expression in NB4 cells by flow cytometry; type: cell-based, human; conditions: TSA plus 9-cis RA, three days
Method: as §3
For flow cytometry analysis of CD18 expression, the cells were incubated with a FITC-conjugated anti-CD18 antibody (DAKO) in a dilution of 1:500 in PBS (0.5% BSA) followed by extensive washing before analyzing on a FACSCAN flow cytometer (Becton Dickinson). Although histone deacetylase inhibitors are known to have pleiotropic effects on global gene expression, the fact that CD18 is a direct retinoid target gene (Agura et al. (1992) Blood 79:602-609) supports the notion that histone deacetylases are integral components of PML-RARα mediated differentiation. […] This would explain why the inhibition of SMRT-mediated repression by TSA increases the retinoid sensitivity of NB4 cells.

[16] = system: NB4-R4 cells; experiment: NBT reduction differentiation assay in retinoid-resistant NB4-R4 cells; type: cell-based, human; conditions: three days
Method: as §3

## CCCC(=O)[O-].[Na+] [NaB, sodium butyrate]
[1]
  reporter activation in combination with ATRA: synergized with ATRA
  relief of repression by GAL-PLZF-RARα: relieved repression
[2]
  RA activation of βRARE reporter in the presence of PLZF-RARα: restore nearly full RA activation
[3]
  relief of transcriptional inhibition by PML-RARα on βRARE reporter: partially, relieves transcriptional inhibition

## CC1=C(/C=C/C(C)=C/C=C/C(C)=C/C(=O)O)C(C)(C)CCC1 [ATRA, all-trans retinoic acid]
[1]; ATRA alone, 36 hours, compared to GAL-RARα
  response of GAL-PLZF-RARα to ATRA (reporter activation): poorly responded
[4]; 1 mM ATRA alone, parental NB4 cells
  percentage of NBT-positive cells: 23%
[5]
  binding of RARα to GST-SMRT-IDII: significantly reduced
[6]
  binding of PLZF-RARα to GST-SMRT-IDII: significantly reduced
[7]
  binding of PLZF-RARα to GST-SMRT-PID2: ligand-insensitive
[8]
  amount of SMRT which associates with RARα: greatly reduced
[9]
  amount of SMRT associated with PLZF-RARα: largely unaffected
[10]
  dissociation of SMRT from RARα: effectively dissociated
[11]
  effect on PML-RARα/SMRT complex: only weakly affected
[12]
  ATRA concentration required to dissociate SMRT from DNA-bound PML-RARα versus RAR: substantially higher concentrations
[13]
  ATRA concentration up to which cells are resistant: up to 10^−7 M

## CC1=C(/C=C/C(C)=C\C=C\C(C)=C\C(=O)O)C(C)(C)CCC1 [9-cis RA, 9-cis retinoic acid]
[14]; suboptimal dose (10 nM) of 9-cis RA alone
  CD14 expression: modest stimulation

## CC(/C=C/C(=O)NO)=C\[C@@H](C)C(=O)c1ccc(N(C)C)cc1 [TSA, Trichostatin A]
[14]; 100 nM TSA alone
  CD14 expression: minimal effect
[14]; TSA plus 10 nM 9-cis RA, compared with 100 nM 9-cis RA
  CD14 expression: dramatic enhancement
[14]; TSA plus high dose (100 nM) 9-cis RA
  CD14 expression: enhanced
[14]; combination of TSA and 9-cis RA
  CD11b expression: cooperative at both high and low doses
[14]; low doses of TSA alone
  CD11b expression: partially activated gene expression
[1]
  reporter activation in combination with ATRA: synergized with ATRA
  relief of repression by GAL-PLZF-RARα: relieved repression
[4]; TSA 50 nM plus ATRA at all concentrations tested
  differentiation effect of ATRA (NBT-positive cells): dramatically enhanced
[4]; TSA (50 nM) alone
  differentiation (NBT-positive cells): no effect
[15]
  RA-induced expression of early differentiation marker CD18: strong stimulatory effect
[16]; ATRA and 200 nM TSA
  percentage of NBT-positive cells: 18%
[16]; TSA plus ATRA
  hormone-induced differentiation (NBT-positive cells): partially restored hormone-induced differentiation
